# Values of other authors in US20090269405A1, “ENZYME MEDIATED DELIVERY SYSTEM” (Appian Labs, LLC, priority 2008, published 2009).
# Where two headings read alike, the source gives them in different places.
# Experiments:
# [1] = chronic oral, 100 mg bid
patients who developed abdominal aortic aneurysms [1],Structure (SMILES),onset of musculoskeletal toxicity (severe events) (25 mg daily) [days],onset of musculoskeletal toxicity (severe events) (75 mg twice daily) [days]
five out of 33,C[C@H]1c2cccc(O)c2C(=O)C2=C(O)[C@]3(O)C(=O)C(C(N)=O)=C(O)[C@@H](N(C)C)[C@@H]3[C@@H](O)[C@@H]21 [doxycycline],–,–
–,CNC(=O)[C@@H](NC(=O)[C@H](CC(C)C)[C@H](O)C(=O)NO)C(C)(C)C [Marimastat],199,56
